Experimental data published in patent US20240294491A1, “SALT OF HETEROCYCLIC COMPOUND WITH ANTI-MALARIA ACTIVITY, AND CRYSTALS THEREOF” (priority 2021, published 2024).
Where “and” joins values, the source holds several entries; their conditions need not be identical. Equal values may be shown once.

How the values were obtained:
[1] = tested on: K1 strain of Plasmodium falciparum (drug-resistant strain); experiment: in vitro antimalarial activity, p-LDH colorimetric protozoan growth assay, K1 strain; assay type: cell-based; settings: K1, 72 h, read-out: 50% protozoan-growth-inhibitory concentration (IC50 value)
Method: (§1) With use of 3D7 and K1 strains, which are a drug-sensitive strain and drug-resistant strain of Plasmodium falciparum, respectively, provided by The Tropical Disease Research Center, Kitasato University, the in vitro antimalarial activity of the compound for these plasmodia was determined. In culture of the test protozoan parasites, maintenance and subculture were performed with a partially modified version of a method by Trager and Jensen (Trager, W and Jensen, J.: Human malaria parasites in continuous culture, Science, 193:673-677, (1976)), and the resultants were used. […]
(§2) The protozoan infection rate was maintained within the range of 0.25 to 10%. Drug sensitivity test was carried out with a modified version of a method by Desjardins et al. (Desjardins, R. E., Canfield, C. J., Haynes, D. E. and Chulay, J. D.: Quantitative assessment of antimalarial activity in vitro by a semiautomated microdilution technique. Antimicrob. Agents Chemother., 16:710-718 (1979)). […] Blue formazan, a product generated through the reaction, was detected by measuring absorbance at a measurement wavelength of 660 nm by using a microplate reader to determine the presence or absence of protozoan growth by colorimetry. […]

[2] = tested on: Pf3D7^0087N9 strain of Plasmodium falciparum; experiment: drug efficacy evaluation with a humanized mouse malaria model; assay type: in vivo; settings: humanized NSG mice, oral once per day for 3 days, treatment initiated 72 hours after infection, infection rate by flow cytometry
Method: The following drug efficacy evaluation with a humanized mouse malaria model was carried out by The Art of Discovery S. L. (Vizcaya, Spain) with use of compound (I). In short, erythrocytes infected with Plasmodium falciparum were intravenously inoculated into mice with transplanted human erythrocytes, and drug treatment was initiated after the lapse of 72 hours. The therapeutic effect in terms of infection rates was evaluated by determining the proportion of infected erythrocytes in peripheral blood.
Used in the present test was a Pf3D7^0087N9 strain of Plasmodium falciparum, which was produced according to study described in Reference (1) shown below. Human erythrocytes were transplanted into female NSG (NOD-scid IL-2Rγnull) immunodeficient mice, and the proportion of human erythrocytes in all the erythrocytes in peripheral blood was maintained to be 40% or more throughout the test period. […] Specifically, 2 μL of peripheral blood collected from an infected mouse was stained with TER-119-Phycoeruthrine (mouse erythrocyte marker) and SYTO-16 (dye for nucleic acid staining), and analyzed by flow cytometry. […] 2008 May 21; 3(5):e2252. • (2) Jimenez-Diaz et al. Quantitative measurement of Plasmodium-infected erythrocytes in murine models of malaria by flow cytometry using bidimensional assessment of SYTO-16 fluorescence. […]

[3] = tested on: 3D7 strain of Plasmodium falciparum (drug-sensitive strain); experiment: in vitro antimalarial activity, p-LDH colorimetric protozoan growth assay, 3D7 strain; assay type: cell-based; settings: 72 hours culture, p-LDH colorimetry, read-out: 50% protozoan-growth-inhibitory concentration (IC50 value)
Method: as §1, §2

C[C@@H](Oc1ccc(CNC(=O)c2cc(-n3cnc(C(F)(F)F)n3)c(N)nc2N)cc1)C(F)(F)F [compound (I), 2,6-diamino-5-[3-(trifluoromethyl)-1H-1,2,4-triazol-1-yl]-N-(4-{[(2R)-1,1,1-trifluoropropan-2-yl]oxy}benzyl)pyridine-3-carboxamide]
IC50 [1]: 0.043 µg/mL and 89 nM | ED90 (daily dose with which the infection rate on day 7 after the infection decreased by 90% from that in a nontreatment group) [2]: 3.2 mg/kg/day | IC50 [3]: 0.026 µg/mL and 53 nM
